# Laboratory results: patent publication US4185152A, “Thiazolidinyl alkoxy pyridines” (Warner-Lambert Company, priority 1971, dated 1980)
# Where two headings read alike, the source gives them in different places.
# Assays:
# [1] = test system: mice exposed to X-ray or gamma ray radiation; experiment: antiradiation test, 30-day survival of irradiated mice; assay type: in vivo; settings: Mus musculus, light or radiation study, ip, i.p., 950 R cobalt-60 gamma or 825 R X-ray, read-out: Survival (30 days)
# From the text: The compounds of the invention are new chemical compounds that are useful as pharmacological agents, especially as antiradiation agents that are active in protecting against the effects of exposure to X-ray or gamma ray radiation.
# In this table, the activity of each compound is expressed in terms of the percentage of animals that survived (30 days) the exposure to radiation at the given dose. The dose given is generally the lowest dose at which a high rate of survival was obtained. Administration was by the intraperitoneal route. Except where indicated otherwise, each compound was administered as the monohydrochloride salt to a test group consisting of 15 mice. The radiation dose was either 950 Roentgens supplied by a cobalt-60 gamma ray source or 825 Roentgens from an X-ray source.
# [2] = approximate LD50 (acute toxicity, antiradiation activity table); settings: mouse, in vivo, ip, mice, intraperitoneal
# [3] = 0.5 h, pre-irradiation time 30 min., 15 mice, monohydrochloride
# [4] = 0.25 h, pre-irradiation time 15 min., 15 mice, monohydrochloride
smiles,measurement,setting,value
"Cl.Ic1ccc(OCCCCCCCN2CCSC2)nc1 [I 7, 5-Iodo-2-{[7-(3-thiazolidinyl)heptyl]oxy}-pyridine, monohydrochloride]",responders at 100 mg/kg,[1]; [3],47%
same,LD50,[2]; monohydrochloride salt,~200 mg/kg
"Brc1ccc(OCCCCCN2CCSC2)nc1.Cl [Br 5, 5-Bromo-2-{[5-(3-thiazolidinyl)pentyl]oxy}-pyridine, monohydrochloride]",responders at 90 mg/kg,"[1]; 0.5 h, dose 90 mg./kg., pre-irradiation time 30 min., six mice, monohydrochloride",83%
same,responders at 180 mg/kg,"[1]; 0.5 h, dose 180 mg./kg., pre-irradiation time 30 min., six mice, monohydrochloride",100%
same,LD50,[2]; monohydrochloride salt,~240 mg/kg
"Cl.Cl.Clc1ccc(OCCCCCN2CCSC2)nc1 [Cl 5, 5-Chloro-2-{[5-(3-thiazolidinyl)pentyl]-oxy}pyridine, dihydrochloride]",responders at 80 mg/kg,"[1]; 0.25 h, pre-irradiation time 15 min., 15 mice, dihydrochloride",87%
same,responders at 80 mg/kg,"[1]; 0.5 h, pre-irradiation time 30 min., 15 mice, dihydrochloride",93%
same,LD50,[2]; dihydrochloride salt,~160 mg/kg
"Brc1ccc(OCCCCCCCCN2CCSC2)nc1.Cl [Br 8, 5-Bromo-2-{[8-(3-thiazolidinyl)octyl]oxy}-pyridine, monohydrochloride]",responders at 50 mg/kg,"[1]; 0.5 h, dose 50 mg./kg., pre-irradiation time 30 min., 15 mice, monohydrochloride",20%
same,LD50,[2]; monohydrochloride salt,~230 mg/kg
"Brc1ccc(OCCCN2CCSC2)nc1.Cl [Br 3, 5-bromo-2-[3-(3-thiazolidinyl)propoxy]pyridine, monohydrochloride]",responders at 100 mg/kg,[1]; [4],33%
same,LD50,[2]; monohydrochloride salt,~250 mg/kg
"Cl.Ic1ccc(OCCCCN2CCSC2)nc1 [I 4, 5-iodo-2-[4-(3-thiazolidinyl)-butoxy]pyridine, monohydrochloride]",responders at 100 mg/kg,[1]; [4],20%
same,LD50,[2]; monohydrochloride salt,> 300 mg/kg
"Cl.Ic1ccc(OCCCCCN2CCSC2)nc1 [I 5, 5-Iodo-2-{[5-(3-thiazolidinyl)pentyl]oxy}-pyridine, monohydrochloride]",responders at 100 mg/kg,[1]; [3],93%
same,LD50,[2]; monohydrochloride salt,~230 mg/kg
"Cc1ccc(OCCCCCN2CCSC2)nc1 [CH3 5, 5-methyl-2-{[5-(3-thiazolidinyl)pentyl]-oxy}pyridine]",responders at 70 mg/kg,"[1]; 0.5 h, dose 70 mg./kg., pre-irradiation time 30 min., 15 mice, dihydrochloride",33%
same,LD50,[2]; dihydrochloride salt,~190 mg/kg
